Experimental data taken from patent publication US20230144824A1, “1H-PYRAZOLO[4,3-d]PYRIMIDINE COMPOUNDS AS TOLL-LIKE RECEPTOR 7 (TLR7) AGONISTS” (BRISTOL-MYERS SQUIBB COMPANY, priority 2020, published 2023).

How the values were obtained:
[1] = molecular target: T1, human TLR7 (Homo sapiens, UniProt Q9NYK1); experiment: Human TLR7 agonist activity assay (HEK-Blue TLR7 SEAP reporter); assay type: cell-based; settings: HEK-Blue TLR7 cells, 18 h treatment, average where assay performed multiple times, read-out: hTLR7 Agonism EC50
T1 construct: host or cells: HEK-Blue TLR7 cells (engineered human embryonic kidney cells)
T1 sequence (Q9NYK1 27-1049): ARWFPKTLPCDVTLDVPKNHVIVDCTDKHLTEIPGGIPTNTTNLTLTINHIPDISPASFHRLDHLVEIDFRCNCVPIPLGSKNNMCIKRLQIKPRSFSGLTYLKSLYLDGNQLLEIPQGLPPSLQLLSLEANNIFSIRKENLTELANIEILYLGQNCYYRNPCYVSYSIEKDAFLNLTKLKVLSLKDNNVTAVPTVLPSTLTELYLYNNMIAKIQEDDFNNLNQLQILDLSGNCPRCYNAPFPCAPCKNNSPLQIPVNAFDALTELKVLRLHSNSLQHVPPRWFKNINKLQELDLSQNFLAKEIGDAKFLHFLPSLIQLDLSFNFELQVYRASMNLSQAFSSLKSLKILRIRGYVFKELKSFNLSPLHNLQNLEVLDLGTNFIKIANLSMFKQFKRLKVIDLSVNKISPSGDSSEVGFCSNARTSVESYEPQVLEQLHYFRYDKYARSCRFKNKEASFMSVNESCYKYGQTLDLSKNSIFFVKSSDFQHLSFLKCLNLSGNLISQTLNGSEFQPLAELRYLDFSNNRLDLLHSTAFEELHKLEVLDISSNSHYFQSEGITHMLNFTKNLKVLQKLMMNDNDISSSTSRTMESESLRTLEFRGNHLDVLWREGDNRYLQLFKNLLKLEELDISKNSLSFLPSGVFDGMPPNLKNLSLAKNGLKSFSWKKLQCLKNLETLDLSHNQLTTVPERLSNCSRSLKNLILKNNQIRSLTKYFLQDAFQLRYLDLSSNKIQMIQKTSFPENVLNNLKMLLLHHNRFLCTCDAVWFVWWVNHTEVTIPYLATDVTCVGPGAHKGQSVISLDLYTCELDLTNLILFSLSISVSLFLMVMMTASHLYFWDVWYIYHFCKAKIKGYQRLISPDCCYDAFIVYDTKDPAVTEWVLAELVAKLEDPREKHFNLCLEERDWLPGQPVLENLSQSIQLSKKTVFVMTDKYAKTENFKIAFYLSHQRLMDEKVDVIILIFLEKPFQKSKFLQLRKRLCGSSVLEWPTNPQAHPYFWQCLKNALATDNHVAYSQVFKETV
Procedure, shortened: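 HEK-Blue TLR7 cells (15,000/well) treated with compound for 18 h at 37 °C, 5% CO2. Secreted SEAP measured with Quanti-Blue, 30 min, OD 620 nm. EC50 taken as concentration giving half-maximal response between baseline and maximum.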

[2] = test system: CD69; experiment: Induction of CD69 in human whole blood; assay type: cell-based; settings: Homo sapiens, 17 h, 100% set to 1 uM of resiquimod, average where assay performed multiple times, read-out: hWB CD69 EC50
Procedure, shortened: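 Heparinized human whole blood treated with TLR7 agonist at final 1 uM and incubated 17 h at 37° C. CD69 surface staining alongside CD14 and CD19, then fix/lysis and flow cytometry on iQuePlus. Curves fitted with 1 uM resiquimod set as 100%.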

Structure (SMILES) | EC50 [1] [nM] | EC50 [2] [nM]
COc1cc(C2CCN(CCO)CC2)cnc1Cn1ncc2nc(N)nc(NCc3cc(C)on3)c21 [Compound 144, 2-(4-{6-[(5-amino-7-{[(5-methyl-1,2-oxazol-3-yl)methyl]amino}-1H-pyrazolo[4,3-d]pyrimidin-1-yl)methyl]-5-methoxypyridin-3-yl}piperidin-1-yl)ethan-1-ol] | 77 | 8.7
CCCCNc1nc(N)nc2cnn(Cc3ncc(C4CCN(CC(C)(C)O)CC4)cc3OC)c12 [Compound 146, 1-[4-(6-{[5-amino-7-(butylamino)-1H-pyrazolo[4,3-d]pyrimidin-1-yl]methyl}-5-methoxypyridin-3-yl)piperidin-1-yl]-2-methylpropan-2-ol] | 28.5 | 25.8
CCCCNc1nc(N)nc2c(Cl)nn(Cc3ncc(C4CCN(C5CCOCC5)CC4)cc3OC)c12 [Compound 149, N7-butyl-3-chloro-1-({3-methoxy-5-[1-(oxan-4-yl)piperidin-4-yl]pyridin-2-yl}methyl)-1H-pyrazolo[4,3-d]pyrimidine-5,7-diamine] | 869 | 590
CCC[C@@H](CCO)Nc1nc(N)nc2cnn(Cc3ncc(C4CCN(C5CC6(CNC6)C5)CC4)cc3OC)c12 [Compound 150, (3S)-3-[(5-amino-1-{[5-(1-{2-azaspiro[3.3]heptan-6-yl}piperidin-4-yl)-3-methoxypyridin-2-yl]methyl}-1H-pyrazolo[4,3-d]pyrimidin-7-yl)amino]hexan-1-ol] | 88.8 | 44.1
COc1cc(C2CCN(C3CC4(COC4)C3)CC2)cnc1Cn1ncc2nc(N)nc(NCC3CC4(CC4)C3)c21 (centres unmarked) [Compound 154, 1-{[3-methoxy-5-(1-{2-oxaspiro[3.3]heptan-6-yl}piperidin-4-yl)pyridin-2-yl]methyl}-N7-({spiro[2.3]hexan-5-yl}methyl)-1H-pyrazolo[4,3-d]pyrimidine-5,7-diamine] | 34 | 7.1
COc1cc(C2CCN(C3CCOCC3)CC2)cnc1Cn1ncc2nc(N)nc(NCC3CC4(CC4)C3)c21 [Compound 157, 1-({3-methoxy-5-[1-(oxan-4-yl)piperidin-4-yl]pyridin-2-yl}methyl)-N7-({spiro[2.3]hexan-5-yl}methyl)-1H-pyrazolo[4,3-d]pyrimidine-5,7-diamine] | 50.8 | 37
COc1cc(C2CCN(C3CNC3)CC2)cnc1Cn1ncc2nc(N)nc(NCC3CC4(CC4)C3)c21 [Compound 158, 1-({5-[1-(azetidin-3-yl)piperidin-4-yl]-3-methoxypyridin-2-yl}methyl)-N7-({spiro[2.3]hexan-5-yl}methyl)-1H-pyrazolo[4,3-d]pyrimidine-5,7-diamine] | 224 | 69.4
COc1cc(C2CCN(C)CC2)cnc1Cn1ncc2nc(N)nc(NCC3CC4(CC4)C3)c21 [Compound 159, 1-{[3-methoxy-5-(1-methylpiperidin-4-yl)pyridin-2-yl]methyl}-N7-({spiro[2.3]hexan-5-yl}methyl)-1H-pyrazolo[4,3-d]pyrimidine-5,7-diamine] | 62 | 4.1
CCCCNc1nc(N)nc2cnn(Cc3ccc(C4CCN(S(C)(=O)=O)CC4)cc3OC)c12 [Compound 161, N7-butyl-1-{[4-(1-methanesulfonylpiperidin-4-yl)-2-methoxyphenyl]methyl}-1H-pyrazolo[4,3-d]pyrimidine-5,7-diamine] | 107 | 36
CCC[C@@H](CCO)Nc1nc(N)nc2cnn(Cc3ncc(C4CCN(CCN(C)C)CC4)cc3OC)c12 [Compound 164, (3S)-3-({5-amino-1-[(5-{1-[2-(dimethylamino)ethyl]piperidin-4-yl}-3-methoxypyridin-2-yl)methyl]-1H-pyrazolo[4,3-d]pyrimidin-7-yl}amino)hexan-1-ol] | 41 | 3.9
CCC[C@@H](CCO)Nc1nc(N)nc2cnn(Cc3cnc(C4CCNCC4)cc3OC)c12 [Compound 166, (3S)-3-[(5-amino-1-{[4-methoxy-6-(piperidin-4-yl)pyridin-3-yl]methyl}-1H-pyrazolo[4,3-d]pyrimidin-7-yl)amino]hexan-1-ol] | 45.5 | 22.5
CCCCNc1nc(N)nc2cnn(Cc3ncc(C4=CC(C)(C)NC(C)(C)C4)cc3OC)c12 [Compound 169, N7-butyl-1-({5-methoxy-2′,2′,6′,6′-tetramethyl-1′,2′,3′,6′-tetrahydro-[3,4′-bipyridine]-6-yl}methyl)-1H-pyrazolo[4,3-d]pyrimidine-5,7-diamine] | 496 | 121
CCCCNc1nc(N)nc2cnn(Cc3ncc(C4CC(C)(C)NC(C)(C)C4)cc3OC)c12 [Compound 170, N7-butyl-1-{[3-methoxy-5-(2,2,6,6-tetramethylpiperidin-4-yl)pyridin-2-yl]methyl}-1H-pyrazolo[4,3-d]pyrimidine-5,7-diamine] | 209 | 42.6
CCC[C@@H](CCO)Nc1nc(N)nc2cnn(Cc3ncc(N4CCNCC4)cc3OC)c12 [Compound 171, (3S)-3-[(5-amino-1-{[3-methoxy-5-(piperazin-1-yl)pyridin-2-yl]methyl}-1H-pyrazolo[4,3-d]pyrimidin-7-yl)amino]hexan-1-ol] | 309 | 55.5
CCC[C@@H](CCO)Nc1nc(N)nc2cnn(Cc3cnc(C4CCN(CCO)CC4)cc3OC)c12 [Compound 173, (3S)-3-{[5-amino-1-({6-[1-(2-hydroxyethyl)piperidin-4-yl]-4-methoxypyridin-3-yl}methyl)-1H-pyrazolo[4,3-d]pyrimidin-7-yl]amino}hexan-1-ol] | 89.9 | 4.8

The next compounds have a lower EC50 [1] than those just listed; values first:

EC50 [1] [nM] | EC50 [2] [nM] | Structure (SMILES)
15.7 | 2.1 | CCC[C@@H](CCO)Nc1nc(N)nc2cnn(Cc3ncc(C4CCN(C5CC6(CCC6)C5)CC4)cc3OC)c12 [Compound 147, (3S)-3-[(5-amino-1-{[3-methoxy-5-(1-{spiro[3.3]heptan-2-yl}piperidin-4-yl)pyridin-2-yl]methyl}-1H-pyrazolo[4,3-d]pyrimidin-7-yl)amino]hexan-1-ol]
14.1 | 0.49 | CCC[C@@H](CCO)Nc1nc(N)nc2cnn(Cc3ncc(C4CCN(C5CC6(COC6)C5)CC4)cc3OC)c12 [Compound 148, (3S)-3-[(5-amino-1-{[3-methoxy-5-(1-{2-oxaspiro[3.3]heptan-6-yl}piperidin-4-yl)pyridin-2-yl]methyl}-1H-pyrazolo[4,3-d]pyrimidin-7-yl)amino]hexan-1-ol]
15.2 | 0.32 | CCC[C@@H](CCO)Nc1nc(N)nc2cnn(Cc3ncc(C4CCN(CC(C)(C)O)CC4)cc3OC)c12 [Compound 151, (3S)-3-{[5-amino-1-({5-[1-(2-hydroxy-2-methylpropyl)piperidin-4-yl]-3-methoxypyridin-2-yl}methyl)-1H-pyrazolo[4,3-d]pyrimidin-7-yl]amino}hexan-1-ol]
5 | 0.065 | CCCCNc1nc(N)nc2cnn(Cc3ccc(C4CCN(C)CC4)cc3OC)c12 [Compound 163, N7-butyl-1-{[2-methoxy-4-(1-methylpiperidin-4-yl)phenyl]methyl}-1H-pyrazolo[4,3-d]pyrimidine-5,7-diamine]
9.4 | 0.17 | CCC[C@@H](CCO)Nc1nc(N)nc2cnn(Cc3cnc(C4CCN(C(C)C)CC4)cc3OC)c12 [Compound 167, (3S)-3-{[5-amino-1-({4-methoxy-6-[1-(propan-2-yl)piperidin-4-yl]pyridin-3-yl}methyl)-1H-pyrazolo[4,3-d]pyrimidin-7-yl]amino}hexan-1-ol]
6.8 | 0.47 | CCC[C@@H](CCO)Nc1nc(N)nc2cnn(Cc3cnc(C4CCN(C5CCOCC5)CC4)cc3OC)c12 [Compound 168, (3S)-3-{[5-amino-1-({4-methoxy-6-[1-(oxan-4-yl)piperidin-4-yl]pyridin-3-yl}methyl)-1H-pyrazolo[4,3-d]pyrimidin-7-yl]amino}hexan-1-ol]
19.9 | 10.8 | CCC[C@@H](CCO)Nc1nc(N)nc2cnn(Cc3ncc(N4CCN(CC(C)(C)O)CC4)cc3OC)c12 [Compound 172, (3S)-3-{[5-amino-1-({5-[4-(2-hydroxy-2-methylpropyl)piperazin-1-yl]-3-methoxypyridin-2-yl}methyl)-1H-pyrazolo[4,3-d]pyrimidin-7-yl]amino}hexan-1-ol]
